ChEMBL document CHEMBL1201862, “PubChem BioAssay data set” (2004)
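Cultured in 96-well plates, cells were exposed to test compound for 48 hours across five concentrations. GI50 is the concentration that inhibits growth by half.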 Activity calls are given as the source filed them. No stated cut-off is given here; in the data, active = GI50 up to about 1.1 µM and inactive = higher.

Legend:
Test in all cases: inhibition of tumour cell growth, NCI panel, 48 h
ACHN = tested on: ACHN
HL-60 = tested on: HL-60
HOP-92 = tested on: HOP-92
K562 = tested on: K562
LOX IMVI = tested on: LOX IMVI
NCI-H226 = tested on: NCI-H226
OVCAR-8 = tested on: OVCAR-8
RPMI-8226 = tested on: RPMI-8226
RXF 393 = tested on: RXF 393
SF-539 = tested on: SF-539
SK-MEL-5 = tested on: SK-MEL-5
SK-OV-3 = tested on: SK-OV-3
SNB-75 = tested on: SNB-75
SR = tested on: SR
TK-10 = tested on: TK-10
Hs-578T = tested on: Hs-578T
MCF7 = tested on: MCF7
NCI/ADR-RES = tested on: NCI/ADR-RES
PC-3 = tested on: PC-3
T47D = tested on: T47D

Measured: GI50

COc1ccc(C(=O)CC(=O)C(=O)Nc2ccc(C)c(C)c2)cc1
inactive: ACHN > 100 µM | HL-60 10.5 µM | HOP-92 > 51.3 µM | K562 53.6 µM | LOX IMVI 23.7 µM | NCI-H226 > 100 µM | OVCAR-8 > 100 µM | RPMI-8226 > 47.5 µM | RXF 393 > 54.5 µM | SF-539 > 100 µM | SK-MEL-5 97.9 µM | SK-OV-3 > 100 µM | SNB-75 11.3 µM | SR > 100 µM | TK-10 > 100 µM

CN(CC(=O)O)Cc1c[nH]c2ccccc12
inactive: ACHN > 100 µM | HL-60 > 100 µM | HOP-92 > 100 µM | Hs-578T > 100 µM | K562 > 100 µM | LOX IMVI > 100 µM | MCF7 > 100 µM | NCI-H226 > 100 µM | NCI/ADR-RES > 100 µM | OVCAR-8 > 100 µM | PC-3 > 100 µM | RPMI-8226 > 100 µM | RXF 393 > 100 µM | SF-539 > 100 µM | SK-MEL-5 > 100 µM | SK-OV-3 > 100 µM | SNB-75 > 100 µM | SR > 100 µM | TK-10 > 100 µM

CSC1=C(C(=O)Nc2ccc(C)cc2)C(N)=NC1=O
inactive: ACHN > 100 µM | HL-60 > 100 µM | HOP-92 > 100 µM | Hs-578T > 100 µM | K562 > 100 µM | LOX IMVI > 100 µM | MCF7 > 100 µM | NCI-H226 > 100 µM | NCI/ADR-RES > 100 µM | OVCAR-8 > 100 µM | RPMI-8226 > 100 µM | RXF 393 > 100 µM | SF-539 > 100 µM | SK-MEL-5 > 100 µM | SK-OV-3 > 100 µM | SNB-75 > 100 µM | SR 81.5 µM | T47D > 100 µM | TK-10 > 100 µM

O=c1c(Nc2ccccc2)cn(CCOc2ccccc2)c(=O)n1CCOc1ccccc1
inactive: ACHN 37.7 µM | HL-60 > 100 µM | HOP-92 35.6 µM | Hs-578T 17.6 µM | K562 > 100 µM | LOX IMVI > 100 µM | MCF7 > 100 µM | NCI/ADR-RES 47.2 µM | PC-3 34.8 µM | RPMI-8226 > 100 µM | RXF 393 48.4 µM | SK-MEL-5 47.9 µM | SR > 100 µM

COc1ccc(-c2c(C3=NCCCN3)nnn2-c2ccc([N+](=O)[O-])cc2)cc1
inactive: ACHN > 100 µM | HL-60 > 100 µM | HOP-92 > 100 µM | K562 > 100 µM | LOX IMVI > 100 µM | NCI-H226 > 100 µM | OVCAR-8 > 100 µM | RPMI-8226 > 100 µM | RXF 393 > 100 µM | SF-539 > 100 µM | SK-MEL-5 > 100 µM | SK-OV-3 34.8 µM | SNB-75 > 100 µM | SR > 100 µM | TK-10 > 100 µM

CCCCCCC(=O)CC(=O)C(=O)Nc1ccccc1C
inactive: ACHN > 100 µM | HL-60 > 100 µM | HOP-92 > 100 µM | K562 > 100 µM | LOX IMVI > 43 µM | NCI-H226 > 100 µM | OVCAR-8 > 100 µM | RPMI-8226 > 100 µM | RXF 393 > 100 µM | SF-539 > 100 µM | SK-MEL-5 > 100 µM | SK-OV-3 > 100 µM | SNB-75 > 100 µM | SR > 100 µM | TK-10 > 100 µM

COc1ccc(-c2c(C3=NCCN3)nnn2-c2ccccc2)cc1
inactive: ACHN > 100 µM | HL-60 67.3 µM | HOP-92 > 100 µM | K562 > 100 µM | LOX IMVI > 100 µM | NCI-H226 > 100 µM | OVCAR-8 > 100 µM | RPMI-8226 > 100 µM | RXF 393 > 100 µM | SF-539 > 100 µM | SK-MEL-5 > 100 µM | SK-OV-3 > 100 µM | SNB-75 98.9 µM | SR 89.9 µM | TK-10 > 100 µM

CCOc1ccccc1/N=N/c1c(-c2ccccc2)nn(C(=O)CC(=O)Nc2cccc(C)c2)c1-c1ccccc1
inactive: ACHN 54.3 µM | HL-60 > 100 µM | HOP-92 > 100 µM | K562 62.7 µM | LOX IMVI > 100 µM | NCI-H226 > 100 µM | OVCAR-8 > 100 µM | RPMI-8226 > 100 µM | RXF 393 > 100 µM | SF-539 > 100 µM | SK-MEL-5 > 100 µM | SK-OV-3 > 100 µM | SNB-75 27.4 µM | SR > 100 µM | TK-10 > 100 µM

Cn1/c(=N\S(=O)(=O)c2ccccc2)[nH]c2ccccc21
inactive: ACHN > 100 µM | HL-60 > 100 µM | HOP-92 > 100 µM | Hs-578T > 100 µM | K562 > 100 µM | MCF7 > 100 µM | NCI-H226 > 100 µM | NCI/ADR-RES 91.8 µM | OVCAR-8 > 100 µM | RPMI-8226 > 100 µM | RXF 393 > 100 µM | SF-539 > 100 µM | SK-MEL-5 > 100 µM | SK-OV-3 > 100 µM | SNB-75 > 100 µM | SR > 100 µM | T47D > 100 µM | TK-10 > 100 µM

CN(C)c1nc2oc(-c3ccccc3)c(-c3ccccc3)c2c2nncn12
inactive: ACHN > 100 µM | HOP-92 > 100 µM | Hs-578T > 100 µM | K562 > 100 µM | LOX IMVI > 100 µM | MCF7 > 100 µM | NCI-H226 > 100 µM | NCI/ADR-RES > 100 µM | OVCAR-8 > 100 µM | RPMI-8226 > 100 µM | RXF 393 > 100 µM | SF-539 > 100 µM | SK-OV-3 > 100 µM | SNB-75 53.5 µM | SR > 100 µM | T47D > 100 µM | TK-10 > 100 µM

CC(C)C(NCc1c2ccccc2nc2ccccc12)C(=O)O (stereo not given)
inactive: ACHN 35 µM | HL-60 25.3 µM | HOP-92 12.4 µM | K562 32.6 µM | LOX IMVI 30.5 µM | NCI-H226 > 100 µM | OVCAR-8 26.5 µM | RPMI-8226 27.3 µM | RXF 393 24.5 µM | SF-539 45.3 µM | SK-MEL-5 64.4 µM | SK-OV-3 > 100 µM | SNB-75 61.8 µM | SR 20.6 µM | TK-10 > 100 µM

O=[N+]([O-])c1ccc(-n2nnc(C3=NCCN3)c2-c2ccc(Cl)cc2)cc1
inactive: ACHN > 100 µM | HL-60 > 100 µM | HOP-92 > 100 µM | K562 83.8 µM | LOX IMVI > 100 µM | NCI-H226 > 100 µM | OVCAR-8 > 100 µM | RPMI-8226 > 100 µM | RXF 393 93.3 µM | SF-539 > 100 µM | SK-MEL-5 > 100 µM | SK-OV-3 > 100 µM | SNB-75 83.6 µM | SR 27.2 µM | TK-10 69 µM

Cc1ccc(S(=O)(=O)Nn2c(C)cc3ccc(S(=O)(=O)Nc4ccccc4[N+](=O)[O-])cc3c2=O)cc1
inactive: ACHN > 100 µM | HL-60 > 100 µM | HOP-92 94.6 µM | Hs-578T 45.3 µM | K562 3.85 µM | LOX IMVI > 100 µM | MCF7 99.3 µM | NCI-H226 40.1 µM | NCI/ADR-RES > 100 µM | OVCAR-8 > 100 µM | PC-3 31.6 µM | RPMI-8226 62.8 µM | SF-539 > 100 µM | SK-OV-3 > 100 µM | SNB-75 > 100 µM | SR > 100 µM | TK-10 > 100 µM

COC1(OC)C2(Cl)C3=CCCC=C3C1(Cl)C(Cl)=C2Cl
inactive: ACHN 28 µM | HL-60 13.9 µM | HOP-92 21.5 µM | K562 > 10 µM | LOX IMVI 15.3 µM | NCI-H226 45.7 µM | OVCAR-8 32.2 µM | RPMI-8226 12.1 µM | RXF 393 13.9 µM | SF-539 29 µM | SK-MEL-5 14.3 µM | SK-OV-3 26 µM | SNB-75 23.3 µM | SR 18.1 µM | TK-10 > 100 µM

O=S(=O)(O)c1ccc(/N=N/c2ccc(/N=N/c3c(O)ccc4cc(S(=O)(=O)O)ccc34)cc2)cc1
inactive: ACHN > 100 µM | HL-60 > 100 µM | HOP-92 > 100 µM | Hs-578T > 100 µM | K562 > 100 µM | MCF7 > 100 µM | NCI-H226 > 100 µM | NCI/ADR-RES > 100 µM | OVCAR-8 > 100 µM | PC-3 > 100 µM | RPMI-8226 > 100 µM | RXF 393 > 100 µM | SF-539 > 100 µM | SK-MEL-5 > 100 µM | SK-OV-3 > 100 µM | SNB-75 > 100 µM | SR > 100 µM | TK-10 > 100 µM

C[n+]1ccc(/C2=C3\C=CC(=N3)/C(c3cc[n+](C)cc3)=c3/cc/c([nH]3)=C(\c3cc[n+](C)cc3)C3=N/C(=C(/c4cc[n+](C)cc4)C4C=CC2N4)C=C3)cc1
inactive: ACHN > 100 µM | HL-60 > 100 µM | HOP-92 > 100 µM | Hs-578T > 80 µM | K562 > 90.4 µM | LOX IMVI > 100 µM | MCF7 > 100 µM | NCI-H226 > 75.7 µM | NCI/ADR-RES > 100 µM | OVCAR-8 > 100 µM | RPMI-8226 > 48.2 µM | RXF 393 > 91.4 µM | SF-539 > 93.5 µM | SK-MEL-5 43 µM | SK-OV-3 > 85.3 µM | SNB-75 51.1 µM | SR 7.73 µM | T47D > 100 µM | TK-10 > 100 µM
